Source: ChEMBL document CHEMBL5154823, “Amphiphilic cyclic peptide [W4KR5]-Antibiotics combinations as broad-spectrum antimicrobial agents” (Eur J Med Chem, 2022)
Values after ≈ are worked out from the molar mass of the structure shown. Active and inactive are the calls of the source. The calls are words filed in the database; no cut-off is given here. Where a SMILES comes first, the peptide text is derived from it.

Columns and labels:
[1] = test system: Staphylococcus aureus; assay: Antibacterial activity against Staphylococcus aureus ATCC BAA -1556 assessed clindamycin MIC incubated for 24 hrs by microbroth dilution assay; type: functional
[2] = test system: Staphylococcus aureus; assay: Synergistic antibacterial activity against Staphylococcus aureus ATCC 29213 assessed as fractional inhibitory concentration index incubated for 24 hrs in presence of meropenem by checkerboard assay; type: functional
[3] = test system: Cell membrane; assay: Induction of membrane disruption in Staphylococcus aureus ATCC BAA -1556 assessed as increase in PI positive cells at MIC incubated for 2 hrs by Propidium iodide staining based FACS cytometry analysis relative to control
[4] = Hemolytic activity in human Red blood cell incubated for 2 hrs by spectrophotometric analysis; type: toxicity, cell-based, Erythrocyte; details: red blood cells (erythrocytes)
[5] = test system: Klebsiella pneumoniae; assay: Synergistic antibacterial activity against Klebsiella pneumoniae ATCC BAA 1705 assessed as fractional inhibitory concentration index incubated for 24 hrs in presence of clindamycin by checkerboard assay; type: functional
[6] = test system: Klebsiella pneumoniae; assay: Antibacterial activity against Klebsiella pneumoniae ATCC BAA 1705 assessed as kanamycin MIC incubated for 24 hrs by microbroth dilution assay; type: functional
[7] = test system: Pseudomonas aeruginosa; assay: Bactericidal activity against Pseudomonas aeruginosa ATCC BAA 1744 assessed as reduction in bacterial growth at MIC measured after 4 hrs by Time kill assay; type: functional, organism-based
[8] = test system: Klebsiella pneumoniae; assay: Antibacterial activity against Klebsiella pneumoniae ATCC BAA 1705 assessed as levofloxacin MIC incubated for 24 hrs by microbroth dilution assay; type: functional
[9] = test system: Staphylococcus aureus; assay: Synergistic antibacterial activity against methicillin resistant Staphylococcus aureus ATCC BAA -1556 assessed as fractional inhibitory concentration index incubated for 24 hrs in presence of meropenem by checkerboard assay; type: functional
[10] = test system: Staphylococcus aureus; assay: Synergistic antibacterial activity against methicillin resistant Staphylococcus aureus ATCC BAA -1556 assessed as fractional inhibitory concentration index incubated for 24 hrs in presence of daptomycin by checkerboard assay; type: functional
[11] = test system: Staphylococcus aureus; assay: Synergistic antibacterial activity against methicillin resistant Staphylococcus aureus ATCC BAA -1556 assessed as fractional inhibitory concentration index incubated for 24 hrs in presence of vancomycin by checkerboard assay; type: functional
[12] = test system: Pseudomonas aeruginosa; assay: Synergistic antibacterial activity against Pseudomonas aeruginosa ATCC 27883 assessed as fractional inhibitory concentration index incubated for 24 hrs in presence of meropenem by checkerboard assay; type: functional
[13] = test system: Pseudomonas aeruginosa; assay: Antibacterial activity against Pseudomonas aeruginosa ATCC 27883 assessed as tetracycline MIC incubated for 24 hrs by microbroth dilution assay; type: functional
[14] = test system: Staphylococcus aureus; assay: Synergistic antibacterial activity against methicillin resistant Staphylococcus aureus ATCC BAA -1556 assessed as fractional inhibitory concentration index incubated for 24 hrs in presence of tetracycline by checkerboard assay; type: functional
[15] = test system: Pseudomonas aeruginosa; assay: Antibacterial activity against Pseudomonas aeruginosa ATCC 27883 assessed as levofloxacin MIC incubated for 24 hrs by microbroth dilution assay; type: functional
[16] = test system: Staphylococcus aureus; assay: Antibacterial activity against Staphylococcus aureus ATCC BAA -1556 assessed as daptomycin MIC incubated for 24 hrs by microbroth dilution assay; type: functional
[17] = test system: Klebsiella pneumoniae; assay: Synergistic antibacterial activity against Klebsiella pneumoniae ATCC BAA 1705 assessed as fractional inhibitory concentration index incubated for 24 hrs in presence of polymyxin B by checkerboard assay; type: functional
[18] = test system: Cell membrane; assay: Induction of membrane disruption in Staphylococcus aureus ATCC BAA -1556 assessed as increase in PI positive cells at 4 times of MIC incubated for 2 hrs by Propidium iodide staining based FACS cytometry analysis relative to control; type: subcellular
[19] = test system: Pseudomonas aeruginosa; assay: Synergistic antibacterial activity against Pseudomonas aeruginosa ATCC 27883 assessed as fractional inhibitory concentration index incubated for 24 hrs in presence of ciprofloxacin by checkerboard assay; type: functional
[20] = test system: Escherichia coli; assay: Antibacterial activity against Escherichia coli ATCC 25922 assessed as ciprofloxacin MIC incubated for 24 hrs by microbroth dilution assay; type: functional
[21] = test system: Klebsiella pneumoniae; assay: Synergistic antibacterial activity against Klebsiella pneumoniae ATCC BAA 1705 assessed as fractional inhibitory concentration index incubated for 24 hrs in presence of ciprofloxacin by checkerboard assay; type: functional
[22] = test system: Pseudomonas aeruginosa; assay: Bactericidal activity against Pseudomonas aeruginosa ATCC BAA 1744 assessed as decrease of bacterial growth at MIC measured after 12 hrs by Time kill assay; type: functional, organism-based
[23] = test system: Klebsiella pneumoniae; assay: Synergistic antibacterial activity against Klebsiella pneumoniae ATCC BAA 1705 assessed as fractional inhibitory concentration index incubated for 24 hrs in presence of daptomycin by checkerboard assay; type: functional
[24] = test system: Klebsiella pneumoniae; assay: Bactericidal activity against Klebsiella pneumoniae ATCC BAA 1705 assessed as decrease of bacterial growth at MIC by Time kill assay; type: functional, organism-based
[25] = test system: Klebsiella pneumoniae; assay: Synergistic antibacterial activity against Klebsiella pneumoniae ATCC BAA 1705 assessed as fractional inhibitory concentration index incubated for 24 hrs in presence of kanamycin by checkerboard assay; type: functional
[26] = test system: HepaRG; assay: Cytotoxicity against human HepaRG cells assessed as assessed as reduction in cell viability at 10 ug/ml incubated for 24 hrs by microplate reader analysis; type: toxicity, cell-based; details: dose 10 µg/ml
[27] = test system: Escherichia coli; assay: Bactericidal activity against Escherichia coli ATCC BAA 2452 assessed as reduction in colony formation at MIC measured after 12 hrs by Time kill assay; type: functional, organism-based
[28] = test system: Klebsiella pneumoniae; assay: Synergistic antibacterial activity against Klebsiella pneumoniae ATCC BAA 1705 assessed as fractional inhibitory concentration index incubated for 24 hrs in presence of vancomycin by checkerboard assay; type: functional
[29] = test system: Klebsiella pneumoniae; assay: Synergistic antibacterial activity against Klebsiella pneumoniae ATCC BAA 1705 assessed as fractional inhibitory concentration index incubated for 24 hrs in presence of levofloxacin by checkerboard assay; type: functional
[30] = test system: Staphylococcus aureus; assay: Antibacterial activity against Staphylococcus aureus ATCC BAA -1556 assessed as vancomycin MIC incubated for 24 hrs by microbroth dilution assay; type: functional
[31] = test system: Cell membrane; assay: Induction of membrane disruption in Pseudomonas aeruginosa ATCC BAA 1744 assessed as increase in PI positive cells at 4 times of MIC incubated for 2 hrs by Propidium iodide staining based FACS cytometry analysis relative to control; type: subcellular
[32] = test system: Escherichia coli; assay: Antibacterial activity against Escherichia coli ATCC 25922 assessed as levofloxacin MIC incubated for 24 hrs by microbroth dilution assay; type: functional
[33] = test system: Klebsiella pneumoniae; assay: Bactericidal activity against Klebsiella pneumoniae ATCC BAA 1705 assessed as reduction in colony formation at MIC measured after 24 hrs by Time kill assay; type: functional, organism-based
[34] = test system: Escherichia coli; assay: Antibacterial activity against Escherichia coli ATCC 25922 assessed as polymyxin B MIC incubated for 24 hrs by microbroth dilution assay; type: functional
[35] = test system: Klebsiella pneumoniae; assay: Antibacterial activity against imipenem resistant Klebsiella pneumoniae ATCC BAA 1705 assessed as reduction in microbial growth incubated for 24 hrs by microbroth dilution method; type: functional
[36] = test system: Escherichia coli; assay: Bactericidal activity against Escherichia coli ATCC BAA 2452 assessed as reduction in bacterial growth at MIC measured after 8 hrs by Time kill assay; type: functional, organism-based
[37] = test system: Pseudomonas aeruginosa; assay: Bactericidal activity against Pseudomonas aeruginosa ATCC BAA 1744 assessed as reduction in colony formation at MIC measured after 18 hrs by Time kill assay; type: functional, organism-based
[38] = test system: Escherichia coli; assay: Synergistic antibacterial activity against Escherichia coli ATCC 25922 assessed as fractional inhibitory concentration index incubated for 24 hrs in presence of kanamycin by checkerboard assay; type: functional
[39] = test system: Escherichia coli; assay: Antibacterial activity against Escherichia coli ATCC 25922 assessed as vancomycin MIC incubated for 24 hrs by microbroth dilution assay; type: functional

N=C(N)NCCC[C@@H]1NC(=O)[C@H](CCCNC(=N)N)NC(=O)[C@H](CCCNC(=N)N)NC(=O)[C@H](CCCNC(=N)N)NC(=O)[C@H](Cc2c[nH]c3ccccc23)NC(=O)[C@H](Cc2c[nH]c3ccccc23)NC(=O)[C@H](Cc2c[nH]c3ccccc23)NC(=O)[C@H](Cc2c[nH]c3ccccc23)NC(=O)[C@H](CCCCN)NC(=O)[C@H](CCCNC(=N)N)NC1=O (cyclo(KWWWWRRRRR))
MIC [1]: 0.031 µg/mL (≈ 0.0187 µM)
fractional inhibitory concentration index (FICI) [2]: 0.5
Activity [3]: 48.2%
HC50 at 2 h [4]: 320 µg/mL
fractional inhibitory concentration index (FICI) [5]: 0.257
MIC [6]: 8 µg/mL
Activity [7]: Active
MIC [8]: 8 µg/mL
fractional inhibitory concentration index (FICI) [9]: 1
fractional inhibitory concentration index (FICI) [10]: 0.5
fractional inhibitory concentration index (FICI) [11]: 0.5
fractional inhibitory concentration index (FICI) [12]: 0.375
MIC [13]: 4 µg/mL
fractional inhibitory concentration index (FICI) [14]: 0.5
MIC [15]: 0.125 µg/mL
MIC [16]: 0.5 µg/mL
fractional inhibitory concentration index (FICI) [17]: 0.313
Activity [18]: 81.3%
fractional inhibitory concentration index (FICI) [19]: 0.5
MIC [20]: 8 µg/mL
fractional inhibitory concentration index (FICI) [21]: 0.562
Activity [22]: Active
fractional inhibitory concentration index (FICI) [23]: 0.313
Activity [24]: Active
fractional inhibitory concentration index (FICI) [25]: 0.375
Activity [26]: Non-Toxic
Activity [27]: Active
fractional inhibitory concentration index (FICI) [28]: 0.5625
fractional inhibitory concentration index (FICI) [29]: 0.375
MIC [30]: 0.25 µg/mL
Activity [31]: 66.8%
MIC [32]: 8 µg/mL
Activity [33]: Active
MIC [34]: 0.125 µg/mL
MIC [35]: 32 µg/mL
Activity [36]: Active
Activity [37]: Active
fractional inhibitory concentration index (FICI) [38]: 0.375
MIC [39]: 16 µg/mL
